Read-outs that look alike come from different tables or passages of the source.
Assays:
[1] = tested on: rats; assay: Tolerability of intravenous infusion and oral doses in rats; assay type: in vivo
Procedure: In order to find out the best route of administration and the correct concentration of prostratin, the drug was administered as an intravenous infusion over three hours as well as a single and twice oral administration to 3 groups of rats. The goal of this experiment was to find out if greater amounts of prostratin can be administered over a longer period of time. This would enable obtaining median higher concentrations in the blood for a longer period of time that would be close to effective concentration found in in vitro studies.
The oral doses were estimated based on a maximum tolerated i.v. dose of 0.4 mg/kg from the DART work in rats, but an oral bio-availability of only 29%. Thus, the maximum tolerated i.v. dose was multiplied by three (i.e., 0.4 mg/kg times 3 equals 1.2 mg/kg as the equivalent oral dose). The purpose of the two lower oral doses (both 0.8 mg/kg, therefore a total of 1.6 mg/kg) and the infusion (0.8 mg/kg over three hours) was to see if the maximum tolerated dose could be exceeded by dividing up the oral into two times 75% the max tolerated dose or as an infusion over 3 hours.

[2] = tested on: latently infected ACH-2 cells; assay: HIV expression (reverse transcriptase activity in supernatant) in latently infected ACH-2 cells; assay type: cell-based
Procedure: The effect of prostratin on virus replication was assessed in latently infected ACH-2 and U1 cells by measuring the accumulation of reverse transcriptase activity in the supernatant of stimulated cells (Gustafson et al., 1992, J Med Chem 35(11): 1978-86).
Briefly, 4×10^4 cells in 100 μl fresh medium were mixed with another 100 μl of medium with or without prostratin or PMA in a 96-well microtiter plate. Plates were incubated for 24-72 h at 37° C. Following incubation, supernatants were harvested, centrifuged (to remove any residual cells) and tested for reverse transcriptase activity as previously described (Gustafson et al., 1992, J Med Chem 35(11): 1978-86).
In these experiments, two concentrations of cells were tested (40,000 and 100,000 cells/well). It is noteworthy that the basal levels of reverse transcriptase activities were much higher in ACH-2 cells than in U1 cells.

[3] = In vivo rat bone marrow micronucleus assay; parameters: species or system CD® (SD) IGS BR rat; conditions: CD (SD) IGS BR, rat, in vivo, once by oral gavage, dose range-finding study, read-out: maximum tolerated dose
Procedure: (§1) The objective of this study was to evaluate the test article, prostratin, for in vivo clastogenic activity and/or disruption of the mitotic apparatus by detecting micronuclei in polychromatic erythrocytes (PCE) in CD® (SD) IGS BR rat bone marrow.
(§2) In the dose range-finding study, the test article was dissolved in ethanol followed by dilution with 0.9% Sodium Chloride for Injection to achieve a final ethanol:saline vehicle (0.8:99.2 v/v) at the appropriate dosing concentrations. The formulations were administered once by oral gavage to three males and three females per dose level. The animals were dosed at 0.4, 0.5, 2, or 5 mg/kg and observed for up to 2 days after dosing for toxic signs and/or mortality.
(§3) Based on the results of the dose range-finding study, the maximum tolerated dose was estimated to be 2.4 mg/kg in the male animals and 2 mg/kg in the female animals. In the micronucleus assay, the test article was dissolved in ethanol followed by dilution with 0.9% Sodium Chloride for Injection to achieve a final ethanol:saline vehicle (0.8:99.2 v/v) at the appropriate dosing concentrations.
(§4) Bone marrow was extracted and at least 2000 PCEs per animal were analyzed for the frequency of micronuclei. Cytotoxicity was assessed by scoring the number of PCEs and normochromatic erythrocytes (NCEs) in at least the first 500 total erythrocytes for each animal.

[4] = tested on: polychromatic erythrocytes (PCE) in CD® (SD) IGS BR rat bone marrow; assay: In vivo rat bone marrow micronucleus assay
Procedure: as §1, §2, §3, §4

[5] = tested on: PBMCs; conditions: alone or in conjunction with other activators; cited from earlier work
[6] = Stability of prostratin in monkey plasma; assay type: in vitro ADME; conditions: 1 and 10 mg/ml, RT and 37° C.
Procedure: Prostratin is stable in plasma and buffer as well as in the stability formulation (see below) developed for in vivo studies in mice. Stability tests for prostratin in mouse and monkey plasma were done using two concentration (1 and 10 mg/ml) and two temperatures (Room Temperature (RT) and 37° C.). The only loss of drug occurred in mouse plasma after 24 hr incubation at 37° C. This represented only 14% decrease in parent drug peak area over this time frame. Prostratin is stable in PBS (phosphate buffer saline) at pH 2 and pH 7.

[7] = tested on: Salmonella typhimurium tester strains TA98, TA100, TA1535, and TA1537; assay: Salmonella/mammalian-microsome reverse mutation assay with confirmatory assay; assay type: cell-based; conditions: 100 to 5000 μg per plate; presence or absence of S9
From the text: The objective of this study was to evaluate the test article, prostratin, for the ability to induce reverse mutations either in the presence or absence of mammalian microsomal enzymes at 1) the histidine locus in the genome of several strains of Salmonella typhimurium and at 2) the tryptophan locus of Escherichia coli tester strain WP2uvrA.
The doses tested in the mutagenicity assay were selected based on the results of a dose range finding study using tester strains TA100 and WP2uvrA and ten doses of test article ranging from 6.67 to 5000 μg per plate, one plate per dose, both in the presence and absence of S9 mix.
The tester strains used in the mutagenicity assay were Salmonella typhimurium tester strains TA98, TA100, TA1535, and TA1537 and Escherichia coli tester strain WP2uvrA. The assay was conducted with five doses of test article in both the presence and absence of S9 mix along with concurrent vehicle and positive controls using three plates per dose. The doses tested were 100, 333, 1000, 3330, and 5000 μg per plate in both the presence and absence of S9 mix. The results of the initial mutagenicity assay were confirmed in an independent experiment.

[8] = tested on: rhesus macaque monkeys; assay: Preliminary pharmacokinetic study in monkeys (mortality); assay type: in vivo; conditions: intravenous bolus 0.8 mg/kg; respiratory failure shortly after injection
Procedure: During a preliminary pharmacokinetic study, rhesus macaque monkeys were administered an intravenous bolus of prostratin at 0.4 mg/kg and 0.8 mg/kg. The monkey in 0.8 mg/kg died due a respiratory failure shortly after injection. Plasma samples from these monkeys were sent to NIH and plasma concentration of prostratin was measure along with other samples at NIH using the LC/MS/MS assay.

For `CC(=O)O[C@@]12C[C@@H](C)[C@@]3(O)[C@@H](C=C(CO)C[C@]4(O)C(=O)C(C)=C[C@@H]34)[C@@H]1C2(C)C` [prostratin, 12-deoxyphorbol 13-acetate], which “Results (tolerability)” value ([1]; female rats, 0.8 mg/kg I.V. infusion, 3 hours) is on record?
Its value is “All animals died”.

What about the “Results (tolerability)” value ([1]; female rats, 1.2 mg/kg, one oral dose) of the same compound?
The value was 2 out of 3 animals died.

And the “Results (tolerability)” value ([1]; female rats, 1.8 mg/kg first oral dose followed by 1.0 mg/kg after 4 hours)?
Its value is 2 died after first dose,.

And the “Results (tolerability)” value ([1]; male rats, 1.8 mg/kg, two oral doses 4 hours apart)?
Its value is “All animals are alive”.

What about the “Results (tolerability)” value ([1]; male rats, 2.4 mg/kg, one oral dose) of the same compound?
The value was “All animals are alive”.

And the “lowest dose to get a reliable increase in reverse transcriptase activity” value [2]?
Its value is 50 ng/mL.

And the “stimulation time at which sizeable reverse transcriptase activity is detected” value [2]?
The value was 24 h.

And the “short incubation (pulsed stimulation) time leading to detectable reverse transcriptase activity” value ([2]; none after 1 h and 4 h)?
The value was 6 h.

What about the MTD ([3]; female rats) of the same compound?
The MTD was 2 mg/kg.

What about the MTD ([3]; male rats) of the same compound?
Its MTD is 2.4 mg/kg.

What about the “micronucleated PCEs” value ([4]; 0.5, 1, or 2 mg/kg for females, 0.6, 1.2, and 2.4 mg/kg for males) of the same compound?
The value was “did not induce statistically significant increases”.

And the “cytotoxicity to the bone marrow (PCE:NCE ratios)” value ([4]; any dose of the test article)?
The value was “not cytotoxic”.

What about the clinical observations ([4]; female animals, 2 mg/kg, approximately one hour post-dose, mortality, irregular respiration, piloerection, and/or recumbency) of the same compound?
The clinical observations was “signs of clinical toxicity”.

What about the “rat bone marrow micronucleus assay, overall” value ([4]; rat, in vivo) of the same compound?
Its value is “negative”.

What about the “individuals on suppressive HAART whose PBMCs showed stimulated HIV-1 production” value [5] of the same compound?
Its value is 4 out of 6.

What about the stability in plasma [6] of the same compound?
The stability in plasma was “stable”.

What about the “mean number of revertants per plate” value [7] of the same compound?
Its value is “did not cause a positive increase”.

What about the mortality [8] of the same compound?
Its mortality is “died”.

— patent US20110224297A1, “Methods of administering prostratin and structural analogs thereof” (priority 2008, published 2011)
